The values that follow come from patent publication US20160120898A1, “METHODS AND COMPOSITIONS FOR THE DISRUPTION OF BIOFILMS AND TREATMENT OF DISORDERS CHARACTERIZED BY THE PRESENCE OF BIOFILMS” (BREATHE EASY LIMITED, priority 2013, published 2016).

Data set [1] is described as follows: Sputum pourability (viscosity) test. Also on record: key to pourability: “0”=no change; “+++>” dissolved. The procedure:
The ability of sodium citrate solution to decrease the viscosity of sputum samples was examined as follows.
Three different sputum samples were employed: sample 1 was of a runny consistency; sample 2 was of an intermediate consistency; and sample 3 was of a heavy consistency. 100 ul samples were measured and transferred to assay tubes in duplicate (except for sample 1 which was in short supply) and placed in a 37° C. preheated Thermomixer. 10 ul of saline (0.9% NaCl) was used as a negative control. 5 ul, 10 ul, 50 ul or 100 ul of 55 mM aqueous sodium citrate solution was added per tube and mixed (400 rpm). Each tube was checked for pourability, or viscosity, at 30 sec, 90 sec and 150 sec by observing the movement of the sputum sample along the wall of the tube. The pourability of sample 3 was also checked at 5 minutes. The pourability was graded as follows: “0”=no change to “+++>” dissolved. The results of the study are shown below in Table 2 for samples 1-3, and in FIG. 1.

Data set [2] in a line: Safety and toxicity of nebulized sodium citrate in healthy volunteers (FEV1, FVC). The class given is in vivo, human. More on the design: FEV1 / FVC: unit not given here. Conditions: for FEV1 / FVC: 5 minutes after treatment. As for the experimental part: The safety and toxicity of aqueous sodium citrate solution was examined as follows. Treatment solutions were prepared by diluting 0 mM, 11 mM and 22 mM sodium citrate in 2 ml of water. The solutions were nebulized and administered to three healthy volunteers in successive treatments, with ascending sodium citrate dosage volumes and a 5 min break between each treatment. The forced expiratory volume in 1 sec (FEV1) and forced vital capacity (FVC) were recorded 5 minutes after each treatment.

The conditions of data set [3]: average found with alpha dornase; cited from earlier work.

In the case of `O=C([O-])CC(O)(CC(=O)[O-])C(=O)[O-].[Na+].[Na+].[Na+]` [sodium citrate], the pourability result in data set [1] (5 ul added to 100 ul sputum, sample 1 (runny), 30 sec) is listed as “+++>”; in data set [1] (5 ul added to 100 ul sputum, sample 1 (runny), 90 sec) it was “+++>”; in data set [1] (5 ul added to 100 ul sputum, sample 1 (runny), 150 sec), “+++>”; in data set [1] (5 ul added to 100 ul sputum, sample 1 (runny), time 0), “+++>”; in data set [1] (5 ul added to 100 ul sputum, sample 2 (intermediate), 30 sec), 0; in data set [1] (5 ul added to 100 ul sputum, sample 2 (intermediate), time 0) it was 0. Moreover, the pourability in data set [1] (5 ul added to 100 ul sputum, sample 3 (heavy), 30 sec) is recorded as 0; in data set [1] (5 ul added to 100 ul sputum, sample 3 (heavy), 5 min), “+>”; in data set [1] (5 ul added to 100 ul sputum, sample 3 (heavy), time 0), 0; in data set [1] (10 ul added to 100 ul sputum, sample 1 (runny), 30 sec), “+++>”; in data set [1] (10 ul added to 100 ul sputum, sample 1 (runny), 90 sec) it was “+++>”; in data set [1] (10 ul added to 100 ul sputum, sample 1 (runny), 150 sec) it was “+++>”. Further, the pourability result in data set [1] (10 ul added to 100 ul sputum, sample 1 (runny), time 0) is “+++>”; in data set [1] (10 ul added to 100 ul sputum, sample 2 (intermediate), 30 sec) it was 0; in data set [1] (10 ul added to 100 ul sputum, sample 2 (intermediate), 150 sec), “+>”; in data set [1] (10 ul added to 100 ul sputum, sample 2 (intermediate), time 0), 0; in data set [1] (10 ul added to 100 ul sputum, sample 3 (heavy), 30 sec), 0; in data set [1] (10 ul added to 100 ul sputum, sample 3 (heavy), 5 min) it was “++>”. The pourability in data set [1] (10 ul added to 100 ul sputum, sample 3 (heavy), time 0) is 0; in data set [1] (50 ul added to 100 ul sputum, sample 1 (runny), 30 sec), “+++>”; in data set [1] (50 ul added to 100 ul sputum, sample 1 (runny), 90 sec) it was “+++>”; in data set [1] (50 ul added to 100 ul sputum, sample 1 (runny), 150 sec) it was “+++>”; in data set [1] (50 ul added to 100 ul sputum, sample 1 (runny), time 0), “+++>”; in data set [1] (50 ul added to 100 ul sputum, sample 2 (intermediate), 150 sec), “++>”. The pourability was 0 in data set [1] (50 ul added to 100 ul sputum, sample 2 (intermediate), time 0); “+>” in data set [1] (50 ul added to 100 ul sputum, sample 3 (heavy), 90 sec); “+>” in data set [1] (50 ul added to 100 ul sputum, sample 3 (heavy), 150 sec); “+++>” in data set [1] (50 ul added to 100 ul sputum, sample 3 (heavy), 5 min); 0 in data set [1] (50 ul added to 100 ul sputum, sample 3 (heavy), time 0); “++>” in data set [1] (100 ul added to 100 ul sputum, sample 2 (intermediate), 90 sec). The pourability entry in data set [1] (100 ul added to 100 ul sputum, sample 2 (intermediate), 150 sec) was “+++>”; in data set [1] (100 ul added to 100 ul sputum, sample 2 (intermediate), time 0), 0; in data set [1] (100 ul added to 100 ul sputum, sample 3 (heavy), 5 min), “+++>”; in data set [1] (100 ul added to 100 ul sputum, sample 3 (heavy), time 0) it was 0. Moreover, in data set [1] (following incubation), the “time of maximal effectiveness in reducing sputum viscosity” value is given as 5 min. Moreover, the FEV1 in data set [2] (Volunteer 1, 11 mM nebulized) came out at 3.90; in data set [2] (Volunteer 1, 22 mM nebulized), 3.96; in data set [2] (Volunteer 2, 11 mM nebulized), 2.39; in data set [2] (Volunteer 2, 22 mM nebulized) it was 2.28; in data set [2] (Volunteer 3, 22 mM nebulized), 2.79. The FVC was 4.66 in data set [2] (Volunteer 1, 11 mM nebulized); 4.82 in data set [2] (Volunteer 1, 22 mM nebulized); 3.48 in data set [2] (Volunteer 2, 11 mM nebulized); 3.40 in data set [2] (Volunteer 2, 22 mM nebulized); 2.84 in data set [2] (Volunteer 3, 22 mM nebulized). Besides, the “irritation or other negative side effects” value in data set [2] (nebulization in three healthy volunteers) is on record as “did not result in any irritation or other negative side effects”.

B1: alpha dornase: Pulmozyme® (dornase alfa or rhDNase), approved for treatment of CF (protein, UniProt P24855 23-282, looked up)
Deoxyribonuclease-1: LKIAAFNIQTFGETKMSNATLVSYIVQILSRYDIALVQEVRDSHLTAVGKLLDNLNQDAPDTYHYVVSEPLGRNSYKERYLFVYRPDQVSAVDSYYYDDGCEPCGNDTFNREPAIVRFFSRFTEVREFAIVPLHAAPGDAVAEIDALYDVYLDVQEKWGLEDVMLMGDFNAGCSYVRPSQWSSIRLWTSPTFQWLIPDSADTTATPTHCAYDRIVVAGMLLRGAVVPDSALPFNFQAAYGLSDQLAQAISDHYPVEVMLK
modifications: dornase alfa
notes: Pulmozyme® (dornase alfa or rhDNase), approved for treatment of CF
As for B1, the “improvement in lung function (FEV1), average” value in data set [3] was 9%.
